From paper PMC6099356 (The New Phytologist, 2018)

Tested on: HA‐SlCaM3/4/5
Format: binding, tomato (Solanum lycopersicum)

Compound | effect on GFP-SFI5/HA-SlCaM3/4/5 association
EDTA | significantly inhibited by the presence of CaM antagonist and Ca^2+ channel blockers
NCCCCCCNS(=O)(=O)c1cccc2c(Cl)cccc12 [Peptide W7, N‐(6‐aminohexyl)‐5‐chloro‐1‐naphthalene‐sulphonamide] | significantly inhibited by the presence of CaM antagonist and Ca^2+ channel blockers
LaCl3 | significantly inhibited by the presence of CaM antagonist and Ca^2+ channel blockers
